We go through two molecules from US20220079962A1, “NUTRITIONAL COMPOSITION COMPRISING 2'FUCOSYLLACTOSE AND DIETARY BUTYRATE” (N.V. Nutricia, priority 2019, published 2022).

For experiment [1], the system named is infant intestinal microbiota. Put plainly: quad-SHIME model of infant intestinal microbiota (SCFA, glycoprofile). Further details: species or system human; Butyrate (Mean ± SD) / Iso-Butyrate (Mean ± SD) / Acetate (Mean ± SD): unit not given here. The following applies: distal colon. From the text:
A faecal sample from a healthy infant born via C-section, exclusively breastfed with no history of antibiotic usage, was used as inoculum to simulate the infant intestinal microbiota in the colon compartments of a quad-SHIME®—a dynamic model of the human gastrointestinal tract comprises 4 SHIME® units running in parallel and each SHIME® unit is composed of 3 reactors simulating the stomach and small intestine, proximal and distal colons.

Another experiment concerns Klebsiella pneumonia K2. Put plainly: Fecal slurry fermentation spiked with pathogens, Klebsiella growth. Particulars: inoculum of baby 2. How it is done:
In addition the test legs were supplemented with Clostridium difficile C153 (difficile agar), Salmonella enteriditis S29 (XLD agar), Cronobacter sakasakii E71 (chromogenic agar) or Klebsiella pneumonia K2 (Simons citrate inositol agar). For every NDO and for the control also a pathogen free culture was prepared.
The experiment was started, and pH setpoint was either 5.5 (facial inoculum from infant 1, vaginally born, breast fed) or pH 6.0 (Inoculum from infant 2, vaginally born, breast fed) with continuous pH regulation, and temperature 37° C., humidity 85%, OD control. At 4, 8 and 24 hours a sample is taken for CFU determination on TOS-propionate MUP agar (total Bifidobacteria), XLD agar for Salmonella enteriditis S29, and Simons citrate inositol agar for Klebsiella pneumonia K2 and for SCFA, D- and L Lactate and ammonia analysis. Fecal pellet was used for 16s DNA sequencing. For both inocula the extent of fermentation, as measured by NaOH consumption, i.e. acid production, was highest with the combination of 3′-GU2′-FL, when compared to 3′-GL or 2′-FL alone. The rate of initial acidification was high for 3′-GL and for 3′-GL/2′-FL. […] As the amount of carbohydrates that can be fermented is the same in the reaction vessels, the higher total acidification with the combination is indicative for an unexpected, synergistic effect of the combination of 2′-FL and 3′-GL. […]

In the case of `C[C@@H]1O[C@@H](O[C@H]2[C@H](O[C@H]3[C@H](O)[C@@H](O)C(O)O[C@@H]3CO)O[C@H](CO)[C@H](O)[C@@H]2O)[C@@H](O)[C@H](O)[C@@H]1O` (stereo partly drawn) [2′-FL, α-L-Fuc-(1→2)-β-D-Gal-(1→4)-D-Glc], the “butyrate generation relative to the control and the scGOS/IcFOS groups” value in experiment [1] was “generated earlier in the distal colon and at a higher concentration”. Moreover, in experiment [1] (D 1-D 3), the “Acetate (Mean ± SD)” value worked out at 38.67 ± 10.25, the “Butyrate (Mean ± SD)” value was 0 ± 0, the “Iso-Butyrate (Mean ± SD)” value is 0 ± 0 and the “Propionate (Mean ± SD)” value came to 10.17 ± 3.01. Besides, in experiment [1] (D 4-D 11), the “Acetate (Mean ± SD)” value was 26.22 ± 0.97, the “Butyrate (Mean ± SD)” value was found to be 0.74 ± 0.49, the “Iso-Butyrate (Mean ± SD)” value is reported as 0.68 ± 0.75 and the “Propionate (Mean ± SD)” value was determined as 6.58 ± 0.49. Besides, in experiment [1] (D 12-D 15), the “Acetate (Mean ± SD)” value was found to be 22.96 ± 1.04, the “Butyrate (Mean ± SD)” value was found to be 0.99 ± 0.09, the “Iso-Butyrate (Mean ± SD)” value is reported as 0.93 ± 0.21 and the “Propionate (Mean ± SD)” value came to 6.13 ± 0.63.
Turning to “Gal (beta 1-3)-Gal (beta 1-4)-Glc [3′-GL]”, in the experiment on Klebsiella pneumonia K2, the “Klebsiella growth” value was “most inhibited”.
